Experimental findings from the NIST ThermoML archive (doi:10.1021/acs.jced.5b00582) are described below.

A short description of data set [1]: refractive index (Na D-line) (dimensionless). Conditions: 298.15 K; 101.33 kPa; Liquid; Standard Abbe refractometry.
For data set [2] the following is noted: Liquid; for mass density: 298.15 K, 101.33 kPa, Pycnometric method; for vapor or sublimation pressure: Ebulliometric method (Recirculating still).

Usually refractive index stands for a measure of how strongly the sample bends light. As usually defined, the mass density is the mass of a sample divided by its volume. Broadly, the vapor or sublimation pressure is the pressure of vapour in equilibrium with the condensed phase.

Numbers after ± are expanded uncertainties.

`COCCOC` [1,2-dimethoxyethane]: in data set [1], the refractive index is 1.378 ± 0.0004. The mass density in data set [2] amounted to 860.4 ± 0.3 kg/m3. In addition, the “vapor or sublimation pressure” value in data set [2] (357.71 K) is given as 101.3 ± 0.86 kPa.

Regarding `CCC(C)OC(C)=O` (configuration not stated) [1-methylpropyl ethanoate], the refractive index in data set [1] is given as 1.3872 ± 0.0004. Further, the mass density in data set [2] was determined as 863.8 ± 0.3 kg/m3. For the same compound, in data set [2] (385.12 K), the “vapor or sublimation pressure” value is 101.3 ± 0.86 kPa.

Take `COCCO` [2-methoxyethan-1-ol]: the refractive index in data set [1] came out at 1.4002 ± 0.0004. Also, the mass density in data set [2] worked out at 960.1 ± 0.3 kg/m3. The “vapor or sublimation pressure” value in data set [2] (397.48 K) is on record as 101.3 ± 0.86 kPa.

In the case of `CCC(C)=O` [butanone], in data set [1], the refractive index is 1.3761 ± 0.0004. Further, the mass density in data set [2] is given as 799.7 ± 0.3 kg/m3. In addition, the “vapor or sublimation pressure” value in data set [2] (352.76 K) is given as 101.3 ± 0.86 kPa.
